Test results reported in patent US10757937B2, “Sulfonamides that activate ABA receptors” (The Regents of the University of California, priority 2014, dated 2020).
Read-outs that look alike come from different tables or passages of the source.

Tests used:
[1] = target: T1, PYL2 (Arabidopsis thaliana, UniProt O80992); test: receptor-mediated PP2C (HAB1) inhibition in vitro assay; assay type: biochemical; details: for IC50: Table VII, read-out: PP2C Dose Curves PYL2 (IC50)
T1 construct: 6X-His; made in house; host or cells: E. coli BL21[DE3]pLysS
T1 sequence (O80992 1-190): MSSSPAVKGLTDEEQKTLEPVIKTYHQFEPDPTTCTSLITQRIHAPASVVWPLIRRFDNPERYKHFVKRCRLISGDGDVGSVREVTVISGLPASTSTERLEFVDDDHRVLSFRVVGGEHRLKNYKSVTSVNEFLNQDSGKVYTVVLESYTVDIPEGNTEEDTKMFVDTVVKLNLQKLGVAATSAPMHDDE
T1 sequence (Q9CAJ0 23-511 partner): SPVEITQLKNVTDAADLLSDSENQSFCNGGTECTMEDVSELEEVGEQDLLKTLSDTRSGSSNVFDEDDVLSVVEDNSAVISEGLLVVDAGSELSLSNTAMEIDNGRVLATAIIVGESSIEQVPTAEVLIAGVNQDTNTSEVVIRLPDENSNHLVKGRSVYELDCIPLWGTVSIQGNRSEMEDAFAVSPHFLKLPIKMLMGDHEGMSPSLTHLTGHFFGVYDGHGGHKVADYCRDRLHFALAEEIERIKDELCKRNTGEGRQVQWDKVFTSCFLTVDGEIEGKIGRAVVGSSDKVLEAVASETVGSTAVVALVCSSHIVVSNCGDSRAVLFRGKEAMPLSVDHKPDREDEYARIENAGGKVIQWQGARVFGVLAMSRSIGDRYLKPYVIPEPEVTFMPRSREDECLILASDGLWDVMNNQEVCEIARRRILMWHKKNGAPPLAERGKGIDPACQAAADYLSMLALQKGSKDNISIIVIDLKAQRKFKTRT
Outline: (§1)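 His-tagged receptors (MBP fusion for PYL11) at 2:1 ratio to 50 nM GST-HAB1 in 100 mM Tris-OAc pH 7.9, 100 mM NaCl, 1 mM MnCl2; 4-methylumbelliferyl-phosphate fluorogenic substrate. Compounds at 50 uM (ABA 10 uM); IC50 from dose curves for selected compounds.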

[2] = target: T2, PYL3 (Arabidopsis thaliana, UniProt Q9SSM7); test: as above; assay type: biochemical
T2 construct: 6X-His; made in house; host or cells: E. coli BL21[DE3]pLysS
T2 sequence (Q9SSM7 1-209): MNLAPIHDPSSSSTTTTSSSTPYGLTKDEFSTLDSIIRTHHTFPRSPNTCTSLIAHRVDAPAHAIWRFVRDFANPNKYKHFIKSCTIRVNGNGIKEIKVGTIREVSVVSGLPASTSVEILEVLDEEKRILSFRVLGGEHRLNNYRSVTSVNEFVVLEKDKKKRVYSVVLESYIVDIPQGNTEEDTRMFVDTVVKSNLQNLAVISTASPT
T2 sequence (Q9CAJ0 23-511 partner): T1 sequence (Q9CAJ0 23-511 partner)
Outline: as §1

[3] = target: T3, PYL5 (Arabidopsis thaliana, UniProt Q9FLB1); test: as above; assay type: biochemical; details: for IC50: Table VII, read-out: PP2C Dose Curves PYL5 (IC50); for remaining activity at 25 µM: compound at 25 μM, control without agonist = 100%
T3 construct: 6X-His; made in house; host or cells: E. coli BL21[DE3]pLysS
T3 sequence (Q9FLB1 1-203): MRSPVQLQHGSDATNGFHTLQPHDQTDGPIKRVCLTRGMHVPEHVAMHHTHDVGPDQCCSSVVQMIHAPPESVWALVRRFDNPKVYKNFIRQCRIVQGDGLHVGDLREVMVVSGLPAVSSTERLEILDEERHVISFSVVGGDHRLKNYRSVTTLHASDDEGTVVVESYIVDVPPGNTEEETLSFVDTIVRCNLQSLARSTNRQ
T3 sequence (Q9CAJ0 23-511 partner): T1 sequence (Q9CAJ0 23-511 partner)
Outline: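 Compounds, tested at 25 μM or 50 uM with ABA at 10 uM, were incubated with recombinant receptor and 50 nM GST-HAB1 (2:1 ratio) in MnCl2-containing Tris-OAc buffer, pH 7.9. Phosphatase activity was followed by 4-methylumbelliferyl-phosphate fluorescence.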

[4] = tested on: Arabidopsis seed germination and hypocotyl growth; test: Arabidopsis seed germination and hypocotyl growth; assay type: in vivo; details: for minimal effective concentration: Arabidopsis thaliana; for Hypocotyl Growth Inhibition / Germination Inhibition: Germination Inhibition II, tested at 10 and 50 uM; for Hypocotyl Growth Inhibition: lowest concentration that inhibited hypocotyl growth in wells where seeds germinated; for Germination Inhibition: lowest of the two concentrations that inhibited
Procedure: We germinated seeds from wild type on ½× strength Murashige and Skoog salts growth medium containing either 10 or 50 μM for all 62 compounds as well as 1 μM (+)-ABA and mock controls. […] To investigate if the any of the compounds are sufficient to control vegetative ABA responses, we treated three week old Arabidopsis plants with aqueous solutions containing 0.02% Silwet and either 50 μM of selected N-acylsulfonamides, 50 μM ABA or 0.1% DMSO (the carrier solvent for the compounds tested). The leaf temperatures were subsequently examined using a thermal imaging camera 24 hours after treatment. It is well known that ABA-induced guard cell closure reduces transpiration, which leads to increases in leaf temperatures. It has been estimated that a 1° C. increase in leaf temperature correlates with a decrease in transpiration rates by approximately 50% (Sirault et al., 2009). Since guard cell aperture is the primary determinant of transpiration rates, thermal imaging is a useful way to indirectly infer relative transpiration rates and, indirectly, relative degrees of guard cell opening at the whole plant level.
Additional compounds were tested for biological activity following the procedures of Example 1 with minor modifications.
For the germination inhibition experiment, the compounds were tested at 10 and 50 uM. The amounts shown are the lowest of the two concentrations that either inhibited germination or hypocotyl growth in wells where seeds germinated.
For the germination test, the compounds were tested at 1, 5, 10, 25 and 50 uM. The amounts shown are the lowest of the concentrations that either inhibited germination or hypocotyl growth in the wells where seeds germinated.

[5] = Table VIII, tested at 10 or 50 μM, ABA at 1 μM, lowest inhibiting concentration, − = none, read-out: Germination Inhibition
[6] = Table VIII, tested at 10 or 50 μM, lowest inhibiting concentration, − = none, read-out: Hypocotyl Growth Inhibition

Structure (SMILES) | PP2C Activity PYL2 ([1]; ABA (10 μM)) | PP2C Activity PYL3 ([2]; ABA (10 μM)) | PP2C Activity PYL5 ([3]; ABA (10 μM)) | IC50 [3] [µM] | remaining activity at 25 µM [3] [%] | minimal effective concentration [4, 5] [µM] | minimal effective concentration [4, 6] [µM] | Hypocotyl Growth Inhibition ([4]; − = none) [µM] | Germination Inhibition ([4]; − = none) [µM] | IC50 [1] [µM] | minimal effective concentration ([4]; Germination Effects III, tested at 1, 5, 10, 25 and 50 uM, lowest concentration inhibiting hypocotyl growth, — = none, read-out: Growth Inhibition) [µM] | minimal effective concentration ([4]; Germination Effects III, tested at 1, 5, 10, 25 and 50 uM, lowest inhibiting concentration, — = none, read-out: Germination Inhibition) [µM] | IC50 ([2]; Table VII, read-out: PP2C Dose Curves PYL3 (IC50)) [µM] | PYL5 agonist potency and selectivity ([3]; compounds with cyclopropyl rings at alpha carbon)
CC1=CC(=O)CC(C)(C)[C@@]1(O)/C=C/C(C)=C\C(=O)O [ABA, Abscisic acid, reference compound] | 6.1 | 5.4 | 4.9 |  |  |  |  |  |  |  |  |  |  | 
CC(C)(C(=O)NS(=O)(=O)Cc1ccc([N+](=O)[O-])cc1)c1ccccc1 [Compound 3] |  |  |  | 29.5 | 47 | 50 | 10 | 10 | 50 |  |  |  |  | 
CC(C)(C(=O)NS(=O)(=O)Cc1ccc(C#N)cc1)c1ccc(Cl)cc1 [Compound 6] |  |  |  | > 50 | 21 | 50 | 10 | 10 | 50 | > 50 |  |  |  | 
CC(C)(C(=O)NS(=O)(=O)Cc1ccc(C#N)cc1)c1ccc(Cl)c(Cl)c1 [Compound 7] |  |  |  | 10.7 | 33 | 50 | 10 | 10 | 50 | > 50 |  |  |  | 
CC(C)(C(=O)NS(=O)(=O)Cc1ccc(C#N)cc1)c1ccc(F)cc1 [Compound 13] |  |  |  | 11.1 | 37 | 10 | 10 |  | 10 | > 50 | 5 | 10 |  | 
CC(C)(C(=O)NS(=O)(=O)Cc1ccc(C#N)cc1)c1cccc(C#N)c1 [Compound 18] |  |  |  | 1.95 | 12 |  |  |  |  | > 50 |  |  | > 50 | 
CC(C)(C(=O)NS(=O)(=O)Cc1ccc(C#N)cc1)c1ccccc1 [Compound 23] |  |  |  | 39.6 |  | 50 | 10 | 10 | 50 |  |  |  |  | 
N#Cc1ccc(CS(=O)(=O)NC(=O)C2(c3ccc(F)cc3)CCCC2)cc1 [Compound 24] |  |  |  | > 50 | 99 | 10 |  |  | 10 |  |  |  |  | 
N#Cc1ccc(CS(=O)(=O)NC(=O)C2(c3ccccc3F)CCCC2)cc1 [Compound 25] |  |  |  |  | 102 | 50 | 10 | 10 | 50 |  |  |  |  | 
N#Cc1ccc(CS(=O)(=O)NC(=O)C2(c3cccc(F)c3)CCCC2)cc1 [Compound 26] |  |  |  |  | 105 | 50 | 10 | 10 | 50 |  |  |  |  | 
N#Cc1ccc(CS(=O)(=O)NC(=O)C2(c3ccccc3)CCC2)cc1 [Compound 29] |  |  |  | > 50 | 90 | 50 | 10 | 10 | 50 |  |  |  |  | 
N#Cc1ccc(CS(=O)(=O)NC(=O)C2(c3ccc(F)cc3)CCC2)cc1 [Compound 32] |  |  |  | > 50 | 74 | 50 | 10 | 10 | 50 |  |  |  |  | 
N#Cc1ccc(CS(=O)(=O)NC(=O)C2(c3ccc(F)cc3)CC2)cc1 [Compound 35] |  |  |  | 3.91 | 20 |  | 10 | 10 |  |  |  |  |  | 
COc1ccccc1C1(C(=O)NS(=O)(=O)Cc2ccc(C#N)cc2)CCC1 [Compound 42] |  |  |  | 29.4 | 45 | 50 | 10 | 10 | 50 |  |  |  |  | 
Cc1cccc(C2(C(=O)NS(=O)(=O)Cc3ccc(C#N)cc3)CCCC2)c1 [Compound 43] |  |  |  |  | 95 | 50 | 10 | 10 | 50 |  |  |  |  | 
Cc1ccccc1C1(C(=O)NS(=O)(=O)Cc2ccc(C#N)cc2)CC1 [Compound 44] |  |  |  | 2.48 | 18 |  | 50 | 50 |  | > 50 |  |  |  | potent and relatively selective PYL5 agonists
N#Cc1ccc(CS(=O)(=O)NC(=O)C2(c3ccc(F)cc3)CCCCC2)cc1 [Compound 51] |  |  |  | > 50 | 97 | 10 |  |  | 10 |  |  |  |  | 
